# Reference: US11672786B2, “Methods of treating diseases associated with repeat instability” (The Hospital for Sick Children, priority 2016, dated 2023)
# How the values were obtained:
# long (CAG)20 slip-out = assay: in vitro repair assay by HeLa cell extracts, long (CAG)20 slip-out; type: biochemical, human
# From the text: Panel A of […] is a schematic of the in vitro repair assay. Starting DNAs and repair products released the repeat-containing fragment, which is resolved on PAGE and assessed on a molar level by Southern blotting and densitometry. Repair of different DNA substrates containing a long (CAG)20 slip-out (Panel B of FIG. 3) long (CTG)20 slip-out (Panel C of FIG. 3), a single CAG slip-out (Panel D of FIG. 3) or a single G-T mismatch (Panel E of FIG. 3), in the absence or in the presence of NA. Slipped-DNA substrates were prepared from hybrids of (CAG)50●(CTG)30, (CAG)30●(CTG)50 or of (CAG)50●(CTG)49. Repair of the G-T mismatch reconstitutes a HindIII restriction site, as shown schematically. Graphs show percentage repair efficiencies to repaired product relative to all repeat-containing fragments in the lane, values are normalized to the NA-free efficiency. […]
# To determine how the binding of NA to slipped DNA structures affects repair, a series of circular slipped heteroduplex substrates was made with an excess of repeats with a nick located either 5′ or 3′ of the slip-out (FIG. 3). […] All these substrates were processed in […] by HeLa extracts and then were assessed for repair. Repair products were analyzed by Southern blotting, probed for the repeat-containing fragment, and compared with starting material, which permitted quantitative assessment of repair efficiency at a molar level. […]
# [1] = system: long (CAG)20 slip-outs from (CAG)50●(CTG)30; assay: band-shift NA-DNA binding, long (CAG)20 slip-out; design: species or system human; settings: NA 0.15-50 μM, 4% polyacrylamide gel
# From the text: FIG. 2 are the results of experiments showing that NA binds to long CAG slip-outs. […] The (CAG)n DNA sequence (left) can fold into an hairpin structure involving mismatched A-A pair flanking C-G base pairs (middle). NA molecules can intercalate into the DNA helix, with the 2-amino-1,8-naphthyridine moiety (in red) hydrogen bonding to guanine and 8-azaquinolone moiety (in blue) hydrogen bonding to adenine. […] Long slip-outs extruded as a single slip-out from a fully base-paired backbone of (CTG)n●(CAG)n, as described (Pearson et al., 2002, Nuc. Acids Res., 30:4534-47). DNAs were mixed with increasing concentrations of NA (0.15 μM, 0.75 μM, 7.5 μM and 50 μM) and resolved on 4% polyacrylamide gels. All lanes are from the same gel, and they were separated for clarity. NA-DNA complexes are shown by brackets, free DNA is indicated by arrowheads. […] The relative migration was measured for the linear and the three slip-outs substrates as the ratio of the migration distance of each NA-DNA complex to the migration distance of the free DNA. The migration distance was measured from the well to a consistent center point of each band. […]
substance,measurement,setting,value
naphthyridine-azaquinolone,effect on repair of long (CAG)20 slip-outs,long (CAG)20 slip-out,specifically inhibits repair
same,NA binding (band-shift),[1],extensively bound
